What all share (experiment): growth of human tumour cells (NCI), 48 h
Test [1] deals with IGROV1 ovarian.
Test [2] deals with SNB-19 CNS.
Test [3] relates to SK-OV-3 ovarian.
The subject of test [4] is TK-10 renal.
For test [5], the system named is 786-0 renal.
For test [6], the system named is COLO 205 colon.
The subject of test [7] is HL-60(TB) leukemia.
Test [8] concerns HOP-62 NSCLC.
The subject of test [9] is OVCAR-5 ovarian.
Test [10] deals with HOP-92 NSCLC.

Values joined by “and” are separate entries in the source; they are usually repeats but may differ in a detail not shown here. Identical values can stand only once.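 48-hour exposure; five concentrations; linearly interpolated endpoints. GI50 marks 50% less growth. TGI is the concentration that stops growth completely.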

Turning to `CCCCc1c2c(nc3c1CCc1cc4cc5c(nc4nc1-3)-c1nc3c(c(CCCC)c1CC5)CCCC3)CCCC2`, the TGI in test [1], in [2], in test [3], in test [4], in test [5] and in test [6] was greater than 100 µM each time. The TGI in [7] and in [8] was greater than 100 µM in each case.
For `CCCCS(=O)CCC(N)C(=O)O` (stereo not given), the TGI in test [1], in [2], in test [3], in [4], in [5] and in test [6] was greater than 100 µM throughout. Moreover, the TGI in test [7], in test [9] and in test [8] was greater than 100 µM throughout.
`O=C1C=CC=CC2CC=C[C@@H](O)C12` (stereo not given in full): the TGI in test [1] was greater than 100 µM; in test [2] it was 54.3 µM; in [3], greater than 100 µM; in [4], greater than 100 µM; in [5], 33.8 µM; in test [6] it was 39.5 µM. For the same molecule, the values for the TGI in test [7], in test [9] and in [8] were 37 µM, 63 µM and greater than 100 µM, respectively.
For `Nc1nc2c(c(=O)[nH]1)NC(CO)CN2` (stereo not given), the TGI in test [1], in test [2], in test [3], in test [4], in test [5] and in test [6] was greater than 100 µM throughout. Also, the TGI in test [7] and in test [8] was greater than 100 µM throughout.
As to `CN(C)c1ccc([O-])cc1.CN(C)c1ccc([O-])cc1.CN(C)c1ccc([O-])cc1.CN(C)c1ccc([O-])cc1.[Ti+4]`, the GI50 in [1] was greater than 100 µM; in [2], greater than 100 µM; in test [3], greater than 100 µM; in test [4], greater than 100 µM; in test [5] it was greater than 100 µM; in [6] it was 85.3 µM. Moreover, the GI50 was 27.5 µM in test [7], greater than 100 µM in [9] and greater than 100 µM in test [8]. Moreover, the TGI in [1], in test [2], in [3], in [4], in test [5] and in test [6] was greater than 100 µM each time. The TGI in [7], in [9] and in [8] was greater than 100 µM in each case.
With `CC12N=NN(c3ccc([N+](=O)[O-])cc3)C1(O)c1ccccc1C2=O` (stereo not given), the TGI in [1], in [2], in [3], in test [4], in [5] and in [6] was greater than 100 µM each time. The TGI in [7] and in test [8] was greater than 100 µM in each case.
Consider `C1C[OH+]CC[OH+]CCNCC[OH+]CC[OH+]CCN1.[Cl-].[Pt+4]`, for which the GI50 in test [1], in test [10], in test [2], in test [3], in [4] and in [5] was greater than 100 µM in each case. The GI50 in [6], in test [9] and in test [8] was greater than 100 µM throughout. Besides, the TGI in test [1], in [10], in [2], in [3], in test [4] and in test [5] was greater than 100 µM throughout. The TGI in test [6], in test [9] and in [8] was greater than 100 µM in each case.
Turning to `COC(=O)C(C(=O)C(=O)Nc1ccc(C(F)(F)F)cc1[N+](=O)[O-])c1csc(-n2nc(-c3ccccc3)cc2-c2ccccc2)n1` (stereo not given), the TGI in [1], in test [2], in test [3], in test [4], in test [5] and in [6] was greater than 100 µM in each case. Moreover, the TGI in test [7], in [9] and in test [8] was greater than 100 µM in each case.
With `NCCCOCC(=O)O`, the TGI in test [1], in test [10], in test [2], in [3], in test [4] and in test [5] was greater than 100 µM each time. In addition, the TGI in test [6] and in test [9] was greater than 100 µM throughout.
For `CC1CC#CCOC(=O)CCCC1=O` (stereo not given), the TGI in [1], in [2], in test [3], in [4], in [5] and in [6] was greater than 100 µM in each case. Moreover, the TGI in test [7] and in test [8] was greater than 100 µM in each case.
On to `COc1cc(/C=C2\CCC/C(=C\c3cc(OC)c(O)c(OC)c3)C2=O)cc(OC)c1O`, for which the TGI in test [1] is 3.89 µM; in test [2], 75 µM and > 100 µM; in test [3], greater than 100 µM; in test [4], greater than 100 µM; in [6], 73.8 µM and 32.8 µM; in [9], 7.4 µM and 63.3 µM. Besides, the GI50 is 3.61 µM in test [2], 3.9 µM in test [5], 5.22 µM in [9] and 5.93 µM in test [8].
With `COc1ccccc1N=C(N)N/N=C/c1c[nH]c2ccccc12`, the TGI worked out at 28.9 µM in [1]; 28.6 µM in test [2]; 31.7 µM in [3]; 30.9 µM in test [4]; 26 µM in [5]; 3.32 µM in test [6]. The TGI was found to be 33.3 µM in test [7], 26.9 µM in test [9] and 30.2 µM in test [8].
For `C/C(=N\O)c1cccc(Nc2cc(-n3ccnn3)c3ccccc3n2)c1`, the GI50 in test [1] was 12.6 µM; in test [10], 13.9 µM; in [2], 45.6 µM; in test [3] it was 30.6 µM; in test [4], 16.9 µM; in test [5], 18.3 µM. Further, the results for the GI50 in test [6], in test [9] and in test [8] were 22.2 µM, 24.4 µM and 15.2 µM, respectively. Also, the TGI was 27.7 µM in [1]; 38.2 µM in test [10]; greater than 100 µM in [2]; greater than 100 µM in test [3]; 46.3 µM in [4]; 51.5 µM in test [5]. Further, the TGI in [6] is 59 µM; in test [9] it was greater than 100 µM; in test [8], 30.7 µM.

Values taken from PubChem BioAssay (NCI).
